In ChEMBL document CHEMBL5390225, “Discovery and structural optimization of a new series of N-acyl-2-aminobenzothiazole as inhibitors of Zika virus” (Bioorg Med Chem, 2023):

Tests used:
Zika virus [1] = experiment: (§1) Inhibition of Zika virus BeH823339 NS2B protease (49 to 95 residues) R96A mutant/NS3 protease (1 to 170 residues) R29G/ C80S/C143S mutant expressed in Escherichia coli BL21 (DE3) cells using Bz-Nle-Lys-Lys-Arg-AMC as a fluorogenic substrate at 100 uM preincubated with enzyme for 10 mins by fluorescence-based analysis relative to control
Zika virus [2] = experiment: Antiviral activity against Zika virus PE243 infected in African green monkey Vero E6 cells assessed as inhibition of viral replication incubated for 72 hrs by immunofluorescence analysis; assay type: functional, organism-based; conditions: PE243, Vero C1008, 72 h
[3] = Cytotoxicity against African green monkey Vero E6 cells assessed as cell viability at 2 uM measured after 72 hrs by MTT assay relative to control; assay type: toxicity, cell-based, Vero C1008; conditions: chlorocebus sabaeus, read-out: Activity
BHK-21 = experiment: Cytotoxicity against golden hamster BHK21-RepZIKV_IRES-Neo cells assessed as reduction in cell viability measured after 72 hrs by MTT assay; assay type: toxicity, cell-based, Mesocricetus auratus; conditions: bhk-21, 72 h
[4] = Cytotoxicity against African green monkey Vero E6 cells assessed as reduction in cell viability measured after 72 hrs by MTT assay; assay type: toxicity, cell-based, Vero C1008; conditions: chlorocebus sabaeus
Nonstructural protein 3 = Nonstructural protein 3 (Zika virus, UniProt A0A024AXB9); experiment: Inhibition of N-terminal His-tagged Zika virus NS2B protease (46 to 99 residues)/NS3 protease (1 to 187 residues) expressed in Escherichia coli Rosetta2(DE3) cells using Boc-Gly-Arg-Arg-AMC as substrate preincubated with enzyme for 10 mins followed by substrate addition and measured for 10 mins by fluorescence based analysis
Nonstructural protein 3, sequence (A0A024AXB9 whole entry, the tested form may be a part): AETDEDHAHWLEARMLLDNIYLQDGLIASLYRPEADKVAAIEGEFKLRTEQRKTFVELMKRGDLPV

Zika virus [5] = experiment: Antiviral activity against Zika virus PE243 infected in African green monkey Vero E6 cells assessed as inhibition of viral replication at 10 uM incubated for 72 hrs by immunofluorescence analysis; assay type: functional; conditions: PE243, Vero C1008
[6] = Selectivity index, ratio of CC50 for cytotoxicity against African green monkey Vero E6 cells to EC50 for antiviral activity against Zika virus PE243 infected in African green monkey Vero E6 cells; assay type: toxicity, cell-based, Vero C1008; conditions: read-out: Ratio CC50/EC50
Zika virus [7] = experiment: Antiviral activity against Zika virus infected in golden hamster BHK21-RepZIKV_IRES-Neo cells assessed as inhibition of viral replication by measuring reduction in renilla luciferase expression at 10 uM measured after 72 hrs by luciferase reporter gene assay relative to control; assay type: functional, Mesocricetus auratus; conditions: BHK-21
Zika virus [8] = experiment: as §1, with “uM” for “uM preincubated with enzyme for 10 mins”
[9] = Cytotoxicity against African green monkey Vero E6 cells assessed as cell viability at 10 uM measured after 72 hrs by MTT assay relative to control; assay type: toxicity, cell-based, Vero C1008; conditions: chlorocebus sabaeus, read-out: Activity
Zika virus [10] = experiment: Antiviral activity against Zika virus PE243 infected in African green monkey Vero E6 cells assessed as inhibition of viral replication at 2 uM incubated for 72 hrs by immunofluorescence analysis; assay type: functional; conditions: PE243, Vero C1008

SMILES: COc1ccc(S(=O)(=O)Nc2ccc(C(=O)Nc3nc4ccccc4s3)cc2)cc1
- inhibition (Zika virus [1]): 32%
- EC50 (Zika virus [2]): 11.1 µM
- viability at 72 h, 2 µM [3]: 88.7%
- Activity (BHK-21): Non-Toxic
- CC50 at 72 h [4]: 13.3 µM
- IC50 (Nonstructural protein 3): 5.2 µM
- inhibition at 10 µM (Zika virus [5]): 74.4%
- selectivity ratio [6]: 1.2
- inhibition at 10 µM (Zika virus [7]): 63.4%
- inhibition (Zika virus [8]): 38%
- viability at 72 h, 10 µM [9]: 94.8%
- inhibition at 2 µM (Zika virus [10]): 10.8%
